Patent US11014911B2, “CDK2 inhibitors” (Pfizer Inc., priority 2019, dated 2021)

Tests used:
[1] = target: CDK2/Cyclin E1 full length (Homo sapiens (Human), UniProt P24941); experiment: CDK2/Cyclin E1 full length mobility shift assay; type: biochemical
GSK3β (H350L) = GSK3β (H350L) (Homo sapiens (Human), UniProt P49841); conditions: read-out: GSK3β Ki
GSK3β (H350L), sequence (P49841 whole entry, stated change not applied): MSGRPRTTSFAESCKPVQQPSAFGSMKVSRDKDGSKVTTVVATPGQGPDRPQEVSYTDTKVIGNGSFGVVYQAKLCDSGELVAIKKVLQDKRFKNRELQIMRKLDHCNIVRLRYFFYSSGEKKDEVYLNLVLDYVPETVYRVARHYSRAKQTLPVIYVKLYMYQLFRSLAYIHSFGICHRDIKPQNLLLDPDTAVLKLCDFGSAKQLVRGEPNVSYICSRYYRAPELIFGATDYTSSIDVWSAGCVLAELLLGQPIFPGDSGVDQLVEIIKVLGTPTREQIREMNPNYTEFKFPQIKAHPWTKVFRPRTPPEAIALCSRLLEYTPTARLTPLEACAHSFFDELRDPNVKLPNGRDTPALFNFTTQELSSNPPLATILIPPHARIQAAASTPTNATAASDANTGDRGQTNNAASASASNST
Experimental: The assay was initiated with the addition of ATP, following 15 minutes pre-incubation of enzyme and inhibitor at room temperature in the reaction mixture. The reaction was stopped after 30 minutes at room temperature by the addition of 50 μL of 80 mM EDTA.

Structure (SMILES) | Ki [1] | Ki (GSK3β (H350L))
CCCNC(=O)O[C@H]1CC[C@@H](c2cc(NC(=O)Cc3ccno3)n[nH]2)C1 [Example 168, (1S,3R)-3-{3-[(1,2-oxazol-5-ylacetyl)amino]-1H-pyrazol-5-yl}cyclopentyl propylcarbamate] | 0.36 nM | 25.8 nM
CC[C@H](C)NC(=O)O[C@@H]1CC[C@H](c2cc(NC(=O)Cc3cccc(C)c3S(C)(=O)=O)n[nH]2)C1 [Example 372, (1R,3S)-3-[3-({[3-methyl-2-(methylsulfonyl)phenyl]acetyl}amino)-1H-pyrazol-5-yl]cyclopentyl (2S)-butan-2-ylcarbamate] | 0.85 nM | 115 nM
Cc1cnc(CC(=O)Nc2cc([C@H]3CC[C@@H](OC(=O)NC4(C)CC4)C3)[nH]n2)o1 [Example 5, (1R,3S)-3-(3-{[(5-methyl-1,3-oxazol-2-yl)acetyl]amino}-1H-pyrazol-5-yl)cyclopentyl (1-methylcyclopropyl)carbamate] | 0.4 nM | 39.4 nM
COc1cc(CC(=O)Nc2cc([C@H]3CC[C@@H](OC(=O)N4[C@@H](C)C[C@@H]4C)C3)[nH]n2)ccn1 [Example 149] | 0.06 nM | 5.58 nM
CCCCNC(=O)O[C@H]1CC[C@@H](c2cc(NC(=O)Cc3ccno3)n[nH]2)C1 [Example 258, (1S,3R)-3-{3-[(1,2-oxazol-5-ylacetyl)amino]-1H-pyrazol-5-yl}cyclopentyl butylcarbamate] | 0.74 nM | 10.7 nM
CC[C@H](C)NC(=O)O[C@@H]1CC[C@H](c2cc(NC(=O)Cc3cc(O)ncc3S(C)(=O)=O)n[nH]2)C1 [Example 52] | 0.2 nM | 10.9 nM
Cc1cnc(CC(=O)Nc2cc([C@H]3CC[C@@H](OC(=O)NCCC(F)(F)F)C3)[nH]n2)o1 [Example 218, (1R,3S)-3-(3-{[(5-methyl-1,3-oxazol-2-yl)acetyl]amino}-1H-pyrazol-5-yl)cyclopentyl (3,3,3-trifluoropropyl)carbamate] | 2.09 nM | 30.6 nM
CCCNC(=O)O[C@@H]1CC[C@H](c2cc(NC(=O)Cc3cc(OC)ccc3S(C)(=O)=O)n[nH]2)C1 [Example 213, (1R,3S)-3-[3-({[5-methoxy-2-(methylsulfonyl)phenyl]acetyl}amino)-1H-pyrazol-5-yl]cyclopentyl propylcarbamate] | 0.32 nM | 183 nM
Cn1cc(CC(=O)Nc2cc([C@H]3CC[C@@H](OC(=O)NC4(C)CCC4)C3)[nH]n2)cn1 [Example 119] | 0.13 nM | 19.3 nM
Cc1cccc(CC(=O)Nc2cc([C@H]3CC[C@@H](OC(=O)NC4(C)CC4)C3)[nH]n2)n1 [Example 426, (1R,3S)-3-(3-{[(6-methylpyridin-2-yl)acetyl]amino}-1H-pyrazol-5-yl)cyclopentyl (1-methylcyclopropyl)carbamate] | 0.53 nM | 17 nM
CC(C)NC(=O)O[C@H]1CC[C@@H](c2cc(NC(=O)Cc3ccno3)n[nH]2)C1 [Example 263, (1S,3R)-3-{3-[(1,2-oxazol-5-ylacetyl)amino]-1H-pyrazol-5-yl}cyclopentyl propan-2-ylcarbamate] | 0.52 nM | 31.9 nM
CCNC(=O)O[C@@H]1CC[C@H](c2cc(NC(=O)Cc3ccnc(OC)c3)n[nH]2)C1 [Example 232, (1R,3S)-3-(3-{[(2-methoxypyridin-4-yl)acetyl]amino}-1H-pyrazol-5-yl)cyclopentyl ethylcarbamate] | 1.54 nM | 34.1 nM
CCCNC(=O)O[C@H]1CC[C@@H](c2cc(NC(=O)Cc3ccccc3S(C)(=O)=O)n[nH]2)C1 [Example 203, (1S,3R)-3-[3-({[2-(methylsulfonyl)phenyl]-acetyl}amino)-1H-pyrazol-5-yl]cyclopentyl propylcarbamate] | 0.29 nM | 34.2 nM
CCCNC(=O)O[C@H]1CC[C@@H](c2cc(NC(=O)Cc3ccc(OCCN)cc3)n[nH]2)C1 [Example 198, (1S,3R)-3-[3-({[4-(2-aminoethoxy)phenyl]acetyl}amino)-1H-pyrazol-5-yl]cyclopentyl propylcarbamate] | 0.28 nM | 52.1 nM
CCCNC(=O)O[C@@H]1CC[C@H](c2cc(NC(=O)Cc3ccc4c(cnn4C)c3)n[nH]2)C1 [Example 54] | 0.24 nM | 9.25 nM
CC[C@H](C)NC(=O)O[C@@H]1CC[C@H](c2cc(NC(=O)c3ccnn3CCO)n[nH]2)C1 [Example 53] | 0.1 nM | 45.7 nM
CCCNC(=O)O[C@H]1CC[C@@H](c2cc(NC(=O)Cc3ccccc3OCCN)n[nH]2)C1 [Example 197, (1S,3R)-3-[3-({[2-(2-aminoethoxy)phenyl]acetyl}amino)-1H-pyrazol-5-yl]cyclopentyl propylcarbamate] | 0.49 nM | > 191 nM
CC[C@H](C)NC(=O)O[C@@H]1CC[C@H](c2cc(NC(=O)Cc3cnc(C)s3)n[nH]2)C1 [Example 33] | 0.17 nM | 26.4 nM
CCCNC(=O)O[C@H]1CC[C@@H](c2cc(NC(=O)c3ccnn3C)n[nH]2)C1 [Example 163, (1S,3R)-3-(3-{[(1-methyl-1H-pyrazol-5-yl)carbonyl]amino}-1H-pyrazol-5-yl)cyclopentyl propylcarbamate] | 0.32 nM | 16.6 nM
O=C(Cc1cc(F)cc(F)c1)Nc1cc([C@@H]2CC[C@H](OC(=O)N[C@H]3CC[C@H](O)CC3)C2)[nH]n1 [Example 28] | 0.18 nM | 4.5 nM

Further lines, results first:

Ki [1] | Ki (GSK3β (H350L)) | Structure (SMILES)
0.4 nM | 10.6 nM | C[C@H]1CCCN1C(=O)O[C@@H]1CC[C@H](c2cc(NC(=O)Cc3cnco3)n[nH]2)C1 [Example 629, (1R,3S)-3-{3-[(1,3-oxazol-5-ylacetyl)amino]-1H-pyrazol-5-yl}cyclopentyl (2S)-2-methylpyrrolidine-1-carboxylate]
1.63 nM | 29.6 nM | CCCNC(=O)O[C@@H]1CC[C@H](c2cc(NC(=O)Cc3ccno3)n[nH]2)C1 [Example 169, (1R,3S)-3-{3-[(1,2-oxazol-5-ylacetyl)amino]-1H-pyrazol-5-yl}cyclopentyl propylcarbamate]
1.08 nM | 3.39 nM | COc1ncc(CC(=O)Nc2cc([C@H]3CC[C@@H](OC(=O)N4CCOC[C@H]4C)C3)[nH]n2)s1 [Example 647, (1R,3S)-3-(3-{[(2-methoxy-1,3-thiazol-5-yl)acetyl]amino}-1H-pyrazol-5-yl)cyclopentyl (3R)-3-methylmorpholine-4-carboxylate]
0.64 nM | 5.23 nM | CCN(C)C(=O)O[C@@H]1CC[C@H](c2cc(NC(=O)Cc3ccc(C)nc3)n[nH]2)C1 [Example 237, (1R,3S)-3-(3-{[(6-methylpyridin-3-yl)acetyl]amino}-1H-pyrazol-5-yl)cyclopentyl ethyl(methyl)carbamate]
0.3 nM | 89.1 nM | COCCn1nccc1C(=O)Nc1cc([C@H]2CC[C@@H](OC(=O)NC(C)(C)C)C2)[nH]n1 [Example 308, (1R,3S)-3-[3-({[1-(2-methoxyethyl)-1H-pyrazol-5-yl]carbonyl}amino)-1H-pyrazol-5-yl]cyclopentyl tert-butylcarbamate]
0.32 nM | 53.2 nM | CC(C)NC(=O)O[C@@H]1CC[C@H](c2cc(NC(=O)Cc3cc(F)cc(F)c3)n[nH]2)C1 [Example 279, (1R,3S)-3-(3-{[(3,5-difluorophenyl)acetyl]amino}-1H-pyrazol-5-yl)cyclopentyl propan-2-ylcarbamate]
1.66 nM | 6.58 nM | COc1ccc(CC(=O)Nc2cc([C@@H]3CC[C@H](OC(=O)N4C[C@@H](O)[C@@H]4C)C3)[nH]n2)cn1 [Example 614, (1S,3R)-3-(3-{[(6-methoxypyridin-3-yl)acetyl]amino}-1H-pyrazol-5-yl)cyclopentyl (2S,3R)-3-hydroxy-2-methylazetidine-1-carboxylate]
0.85 nM | 43.4 nM | CCNC(=O)O[C@@H]1CC[C@H](c2cc(NC(=O)Cc3cc(F)cc(F)c3)n[nH]2)C1 [Example 233, (1R,3S)-3-(3-{[(3,5-difluorophenyl)acetyl]amino}-1H-pyrazol-5-yl)cyclopentyl ethylcarbamate]
4.18 nM | 16.3 nM | COc1cc(CC(=O)Nc2cc([C@@H]3CC[C@H](OC(=O)N4C[C@@](C)(O)[C@@H]4C)C3)[nH]n2)ccn1 [Example 624, (1S,3R)-3-(3-{[(2-methoxypyridin-4-yl)acetyl]amino}-1H-pyrazol-5-yl)cyclopentyl (2S,3R)-3-hydroxy-2,3-dimethylazetidine-1-carboxylate]
0.47 nM | 6.34 nM | Cn1ccc(CC(=O)Nc2cc([C@H]3CC[C@@H](OC(=O)N4CCCC4(C)C)C3)[nH]n2)n1 [Example 639, (1R,35)-3-(3-{[(1-methyl-1H-pyrazol-3-yl)acetyl]amino}-1H-pyrazol-5-yl)cyclopentyl 2,2-dimethylpyrrolidine-1-carboxylate]
0.49 nM | 53.1 nM | COc1ccc(CC(=O)Nc2cc([C@H]3CC[C@@H](OC(=O)NC(C)C)C3)[nH]n2)cc1 [Example 275, (1R,3S)-3-(3-{[(4-methoxyphenyl)acetyl]amino}-1H-pyrazol-5-yl)cyclopentyl propan-2-ylcarbamate]
0.43 nM | 4.85 nM | Cc1ncc(CC(=O)Nc2cc([C@@H]3CC[C@H](OC(=O)N[C@H]4CC[C@@](C)(O)CC4)C3)[nH]n2)s1 [Example 562, (1S,3R)-3-(3-{[(2-methyl-1,3-thiazol-5-yl)acetyl]amino}-1H-pyrazol-5-yl)cyclopentyl (cis-4-hydroxy-4-methylcyclohexyl)carbamate]
1.37 nM | > 191 nM | CCCNC(=O)O[C@H]1CC[C@@H](c2cc(NC(=O)c3ccnc(C)c3)n[nH]2)C1 [Example 170, (1S,3R)-3-(3-{[(2-methylpyridin-4-yl)carbonyl]amino}-1H-pyrazol-5-yl)cyclopentyl propylcarbamate]
0.59 nM | 14.4 nM | Cc1cc(CC(=O)Nc2cc([C@H]3CC[C@@H](OC(=O)N4CCCC[C@H]4C)C3)[nH]n2)on1 [Example 641, (1R,3S)-3-(3-{[(3-methyl-1,2-oxazol-5-yl)acetyl]amino}-1H-pyrazol-5-yl)cyclopentyl (2R)-2-methylpiperidine-1-carboxylate]
